pIC50: −log10 of the molar value.
Tests used:
[1] = target: T1, rat Cyp 2C12 (Rattus norvegicus, UniProt P11510); assay: Recombinant rat Cyp phenotype profiling, 2C12; format: in vitro ADME; details: 60 min
T1 construct: purchased BD Gentest; host or cells: baculovirus infected insect cells
Procedure: Identification of the drug metabolizing enzymes (DMEs) of A-998679 was studied in cDNA expressed recombinant enzymes prepared from baculovirus infected insect cells over-expressing rat Cyp isoforms (BD Gentest, Woburn, MA) as listed in Table 2. Incubations were conducted in duplicate using Supersomes. The incubation mixture contained 100 pmol/ml of enzymes, except for Cyp1a1 (200 pmol/ml), 0.1 or 0.21 μM of [^3H]A-998679 in 100 mM phosphate buffer (pH 7.4). Reactions were initiated with the addition of NADPH at a final concentration of 1 mM and incubated at 37°C for 60 min. At the end of the incubation period, the incubations were terminated by the addition of acetonitrile/ethanol (50/50, v/v) solution. Insect control samples lacking expressed enzyme were used as negative control. The degree of metabolism of A-998679 was assessed by percent of parent remaining using the radio-HPLC method described below.
Radiolabeled components from the above assays were profiled following separation by HPLC with on line radioflow detector. The system consisted of an Agilent 1100 Series quaternary pump and autosampler connected to a Packard 500TR flow scintillation detector. The data were processed using the Radiomatic™ Flo-one® software v3.65. The scintillant (Perkin Elmer FLO-SCINT™ III) flow was maintained at 3 ml/min. […]

[2] = system: Cyp1a2; assay: Cyp1a2 mRNA in rat liver after 5 days of dosing (microarray, RT-PCR); format: in vivo
Procedure: All animal experiments were conducted in accordance with the Guiding Principles in the Use of Animals in Toxicology (http://www.toxicology.org/ai/air/air6.asp) and were approved by Abbott's Institutional Animal Care and Use Committee (IACUC). Male Sprague-Dawley rats [Crl:CD®(SD)IGS BR], weighing ~250 g at study initiation were obtained from Charles River Laboratories, Inc. (Wilmington, MA). Rats were housed singly in ventilated, stainless steel, wire-bottom hanging cages and fed non-certified Rodent Chow (Harlan Labs, Madison, WI), and water ad libitum and acclimated for at least 5 days after arrival. […] Serum clinical chemistry parameters were quantified using an Aeroset Clinical Chemistry Analyzer (Abbott Laboratories, Abbott Park, IL) and included alanine amino transferase (ALT), aspartate amino transferase (AST), gamma glutamyltransferase (GGT), and alkaline phosphatase (ALP) activities.
Frozen liver or jejunum were immediately added to 4 ml of TRIzol reagent (Invitrogen Life Technologies) and homogenized using a Polytron 300D homogenizer (Brinkman Instruments, Westbury, NY). […] Nucleic acid concentration was determined by OD 260 nm (Smart-Spec, Bio-Rad Laboratories, Hercules, CA), and RNA integrity was evaluated using an Agilent 2100 bioanalyzer (Agilent Technologies, Foster City, CA). […]

[3] = target: T2, CYP3A4 (Homo sapiens, UniProt P08684); assay: CYP inhibition evaluation in human liver microsomes, CYP3A4 (midazolam); format: in vitro ADME; details: probe substrate midazolam
T2 construct: from tissue; host or cells: human liver microsomes
T2 sequence (P08684 whole entry): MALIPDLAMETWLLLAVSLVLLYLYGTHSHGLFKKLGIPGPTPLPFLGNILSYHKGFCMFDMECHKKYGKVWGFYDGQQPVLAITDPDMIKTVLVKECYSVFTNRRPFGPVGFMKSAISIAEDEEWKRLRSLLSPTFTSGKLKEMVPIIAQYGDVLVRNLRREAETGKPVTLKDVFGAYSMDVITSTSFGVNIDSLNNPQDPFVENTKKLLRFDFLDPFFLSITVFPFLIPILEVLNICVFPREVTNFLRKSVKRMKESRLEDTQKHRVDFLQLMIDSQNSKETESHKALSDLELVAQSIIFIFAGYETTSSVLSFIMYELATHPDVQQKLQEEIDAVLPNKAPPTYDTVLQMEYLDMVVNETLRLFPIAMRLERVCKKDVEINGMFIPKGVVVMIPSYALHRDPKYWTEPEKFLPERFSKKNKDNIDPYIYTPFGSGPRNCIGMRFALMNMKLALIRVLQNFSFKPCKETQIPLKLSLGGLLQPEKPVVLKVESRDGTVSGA
Procedure: Incubations were performed in human liver microsomes using probe substrate concentrations similar to their corresponding Km values. Enzyme activity was evaluated in the presence of various concentrations of A-998679. The incubations consisted of the test article at varying concentrations (0–30 μM), probe substrate (concentration ~Km, see Table A2), human liver microsomal protein and 1 mM NADPH in 50 mM phosphate buffer at pH 7.4. Relative quantitation of the metabolites was obtained by LC-MS/MS using an ABSciex (Foster City, CA) API3000 or API4000 Qtrap hybrid linear ion trap mass spectrometer equipped with a TurboIonspray source using either PerkinElmer series 200 pumps or Agilent 1100 series pump with a Leap autosampler. Analytes were separated using a Phenomenex Prodigy ODS(3) 5 μm, 50 × 2.0 mm column at 50°C, eluted and detected under the specific conditions listed in Tables A3, A4, and A5. The analyte to internal standard peak area ratios were determined using Analyst 1.4 software (Applied Biosytems, Carlsbad, CA). The peak area ratios observed in the presence of test article were compared to the vehicle control in order to determine percent activity. To determine the IC50, the data were plotted as Log [dose] μM vs. % inhibition, and analyzed with a sigmoidal dose-response (variable slope) fitting equation. […]

T1 sequence (P11510 whole entry): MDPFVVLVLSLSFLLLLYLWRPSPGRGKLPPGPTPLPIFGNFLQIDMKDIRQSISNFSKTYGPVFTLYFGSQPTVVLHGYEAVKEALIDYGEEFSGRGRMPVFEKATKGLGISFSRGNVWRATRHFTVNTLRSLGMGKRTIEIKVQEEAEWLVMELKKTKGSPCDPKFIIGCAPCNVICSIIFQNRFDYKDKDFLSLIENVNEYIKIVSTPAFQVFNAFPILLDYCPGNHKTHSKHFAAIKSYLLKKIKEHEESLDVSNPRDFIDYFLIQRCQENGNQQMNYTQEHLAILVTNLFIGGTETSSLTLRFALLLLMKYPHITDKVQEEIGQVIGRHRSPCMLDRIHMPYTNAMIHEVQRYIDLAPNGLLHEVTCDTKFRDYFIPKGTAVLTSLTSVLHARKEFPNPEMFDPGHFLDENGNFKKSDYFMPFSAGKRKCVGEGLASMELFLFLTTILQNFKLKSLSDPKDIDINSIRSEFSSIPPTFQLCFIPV

With `N#Cc1cccc(-c2noc(-c3cccnc3)n2)c1` [A-998679, 3-(5-pyridin-3-yl-1,2,4-oxadiazol-3-yl) benzonitrile] the “% parent remaining” value ([1]; recombinant rat Cyp 2C12, 0.10 μM) was 100%, the “% parent remaining” value ([1]; recombinant rat Cyp 2C12, 0.21 μM) was 100% and the “Cyp1a2 mRNA increase in rat liver (microarray)” value ([2]; 5 days of dosing, in at least one animal starting at the 100 mg/kg dose) was 2–3 fold. The “Cyp1a2 mRNA expression in rat liver (RT-PCR)” value ([2]; 5 days, all doses (30, 100, 200 mg/kg/day)) was “strongly induced” and the pIC50 [3] was under 4.52.

From article PMC3481155, “AhR activation underlies the CYP1A autoinduction by A-998679 in rats” (Frontiers in Genetics, 2012)
